According to US12383579B2, “Materials and methods of using an inhibitor of plasminogen activation to treat anastomotic leak” (THE UNIVERSITY OF CHICAGO, priority 2018, dated 2025):
Values joined by “and” are separate entries in the source; they are usually repeats but may differ in a detail not shown here. Equal values may be shown once. “Also recorded” adds a separate entry of the source.

What was measured:
[1] = test system: P. aeruginosa-induced anastomotic leak; assay: Mouse model of P. aeruginosa-induced anastomotic leak; format: in vivo, mice
Procedure: Mouse model of AL. The experiments disclosed herein used the validated model of pathogen-mediated AL in mice (8′). Ten- to 12-week-old C57BL/6 mice (Charles River) were provided standard chow and tap water ad libidum at all times. When indicated, mice received oral clindamycin (100 mg/kg gavage) and subcutaneous cefoxitin (40 mg/kg) the day prior to, and the day of, surgery. Mice underwent general anesthesia with intraperitoneal ketamine and xylocaine and laparotomy followed by transection of the colon at the colo-rectal junction followed by a primary anastomosis created with interrupted 8-0 prolene suture prior to abdominal closure with 4-0 vicryl suture in two layers. Rectal enemas containing pathogen, either E. faecalis or P. aeruginosa at an OD600 of 0.1 in 10% glycerol, were administered in 100 L enemas. E. faecalis was introduced on POD 1, 2, and 3, while P. aeruginosa was introduced only on POD 1. […] Rectal delivery with a gavage needle ensured local administration of pathogen and study drugs to the surgical site. Rules for stopping the experiment were enacted if mice appeared moribund or in any distress whereby they were sacrificed immediately. There were three deaths prior to planned sacrifice, all determined secondary to feculent peritonitis due to AL. Both the surgeon and the investigator performing analysis of healing were blind to the treatment group. […]

[2] = target: FITC-PLG at the anastomosis (Homo sapiens, UniProt P00747); assay: In vivo deposition of FITC-PLG at surgical anastomoses; design: species or system mice; conditions: TXA enema one hour prior to sacrifice, 48 and 72 hours post-operative
Sequence of FITC-PLG at the anastomosis (P00747 20-810 limits assumed): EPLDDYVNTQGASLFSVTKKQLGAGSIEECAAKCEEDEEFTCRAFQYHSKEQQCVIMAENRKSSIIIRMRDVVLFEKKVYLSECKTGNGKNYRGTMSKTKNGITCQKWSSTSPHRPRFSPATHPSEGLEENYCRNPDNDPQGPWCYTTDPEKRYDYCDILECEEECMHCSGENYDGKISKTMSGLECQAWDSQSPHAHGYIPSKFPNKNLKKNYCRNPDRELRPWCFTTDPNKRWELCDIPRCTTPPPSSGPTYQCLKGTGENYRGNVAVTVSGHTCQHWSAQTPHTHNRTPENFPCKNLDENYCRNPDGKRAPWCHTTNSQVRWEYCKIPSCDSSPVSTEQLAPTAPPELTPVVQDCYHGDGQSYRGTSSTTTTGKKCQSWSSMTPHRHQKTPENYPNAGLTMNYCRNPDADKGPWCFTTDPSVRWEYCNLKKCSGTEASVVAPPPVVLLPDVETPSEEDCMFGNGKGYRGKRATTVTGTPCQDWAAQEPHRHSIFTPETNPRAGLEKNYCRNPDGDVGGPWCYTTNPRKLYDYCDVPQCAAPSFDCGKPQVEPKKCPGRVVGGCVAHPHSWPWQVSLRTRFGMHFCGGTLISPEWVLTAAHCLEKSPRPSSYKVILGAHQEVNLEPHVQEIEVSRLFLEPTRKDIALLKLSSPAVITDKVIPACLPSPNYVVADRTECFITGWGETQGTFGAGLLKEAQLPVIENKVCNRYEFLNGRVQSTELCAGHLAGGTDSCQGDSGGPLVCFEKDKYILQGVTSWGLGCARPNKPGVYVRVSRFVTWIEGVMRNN
Procedure: Mice underwent anastomosis without exposure to antibiotics or exogenous pathogen followed by intraperitoneal injection with FITC-PLG and either TXA or vehicle control enema one hour prior to sacrifice. Three animals per treatment group were sacrificed at various time points. […] Either TXA or water vehicle enema was administered along with systemic FITC-PLG injection one hour prior to sacrifice. […] Total FITC-PLG fluorescent signal was quantified in all mice as integrated density/area. […] A segment of anastomotic tissue collected from a mouse that received no enemas at 24 hours post-operative was observed. FITC-PLG fluorescence intensity is spatially quantified across the length of the tissue.
Mean FITC staining intensity was quantified as integrated density/area at the anastomotic sites of three mice per treatment group at the 48- and 72-hour time points.

[3] = test system: E. faecalis E44-induced AL; assay: Mouse model of E44-induced anastomotic leak; format: in vivo, C57BL/6 mice
Procedure: The role of activated plasminogen (PLG) in anastomotic leak. […] Co-incubation of E44 with murine macrophages ([…]) was performed for studies involving conditioned media. Twenty-week-old male C57BL/6 mice underwent the validated model of E44-induced AL that includes preoperative antibiotics to defaunate the colon, surgical transection and anastomosis of the colon and introduction of E44 in 10% glycerol to the surgical site via rectal enema on postoperative day 1. […] Anastomotic healing was assessed blindly using a validated anastomotic healing score (AHS): 0=uncomplicated healing, 1=flimsy adhesions, 2=dense adhesions, 3=abscess, and 4=gross anastomotic disruption. AL was defined as AHS 3 or above.

[4] = test system: E. faecalis V583 and FITC-PLG at the anastomotic site; assay: Co-localization of E. faecalis and PLG at the anastomotic site; format: in vivo, mice; conditions: TXA enema POD 1, 2, 3; POD3
Source text: Co-localization of E. faecalis and PLG: Mice underwent anastomotic surgery with postoperative introduction of E. faecalis V583. The mice received post-operative TXA or vehicle enemas as described herein. They received a systemic (intra-peritoneal) injection of 100 L 4 M FITC-labeled PLG one hour prior to sacrifice. Anastomotic tissue was collected in sterile fashion and cryosectioned. Slides were stained with 4′,6-diamidino-2-phenylindole (DAPI) for colonic mucosa. For visualization of microbial organisms, the inventors used probes designed by Miacom Diagnostics, which use a fluorescence in situ hybridization (FISH) beacon-based technology. An E. faecalis-specific probe was labeled with Alexa Fluor 647. Staining was performed overnight per the manufacturer's protocol. Confocal microscopy was performed on a Leica SP5 II AOBS tandem scanner spectral confocal system on a DMI6000 microscope and controlled by LASAF software (version 2.8.3). […] channels were collected at each location using sequential excitation (excitation: 405, 488, and 633; emission: 412-452, 495-537, and 654-755 nm pass bands) on either photomultiplier or HyD hybrid detectors. […]
Co-localization of E. faecalis and plasminogen at the anastomotic site. […] Mice undergoing E. faecalis-mediated anastomotic leak were administered FITC-labeled PLG (as observed by green fluorescence) systemically. […]

[5] = test system: polymicrobial communities cultured from the postoperative mouse colon; assay: Plasmin activity assay of polymicrobial communities from postoperative mouse colon; format: biochemical; conditions: 10 mM TXA, exogenous PLG and uPA
Procedure: Polymicrobial communities collected from homogenized tissue and luminal contents were cultured aerobically in nonspecific media and underwent plasmin activity assays in the presence of human PLG and uPA. […] (*p<0.05, ANCOVA). Error bars indicate means±SD. All data are representative of three separate experiments, each run in triplicate.
Plasminogen/uPA activity. Plasmin activity assays were performed as previously described with minor modifications, and fluorescence data was analyzed per the manufacturer's instructions (50′). Incubation times were optimized for bacteria at low optical density to limit internal filter effects in fluorescence-based assays. Bacteria (when included) were grown overnight in TY media. […] A final concentration of 6 M fluorogenic substrate specific for plasmin (H-D-Val-Leu-Lys-AFC, AnaSpec) was added immediately prior to a kinetic fluorescent read with excitation wavelength 380 nm and emission wavelength 500 nm. Reads were conducted every 15 to 30 seconds over the course of 30 minutes. […] When assays were performed in human plasma, fluorescence was read for 120 minutes total.
Plasmin activity assays were measured in polymicrobial communities cultured aerobically from homogenized luminal contents or tissue following anastomotic surgery without antibiotics and without introduction of a leak-inducing pathogen (e.g., E. faecalis, P. aeruginosa, S. marcescens). […]

E. faecalis = assay: Intrinsic bacterial type IV collagen degradation in the absence of PLG; format: biochemical, Enterococcus faecalis
Procedure: Collagen degradation. Assays were performed per the manufacturer's instructions as previously described with slight modifications (51′). Bacteria were grown overnight in TY. Optical density was normalized to 0.1 through dilution. Bacteria were then incubated with fluorescein-labeled type I collagen, type IV collagen, or gelatin according to the manufacturer's instructions (ThermoFisher), human PLG at 250 nM and TXA. Total reaction volume was 200 L. The incubation proceeded at 37° C. for 5 hours to allow for bacterial attachment to collagen and PLG binding. uPA was added and the incubation proceeded for an additional hour. Change in fluorescence over time at 480/520 nm was determined kinetically over the initial 30 minutes of the reaction.

[6] = test system: FITC-labeled PLG binding to E. faecalis V583 cell surface; assay: Flow cytometric evaluation of FITC-PLG binding to E. faecalis; design: species or system Enterococcus faecalis; conditions: for geometric mean fluorescence intensity of cells (surface-bound FITC-PLG): 1768 in the absence of TXA
Procedure: Flow cytometric evaluation of PLG binding. PLG binding to the bacterial surface was measured as previously described, with minor modifications (52′). Bacteria were grown overnight in TY. Cultures were diluted to a final density of roughly 8×10^6 CFU/mL. […] Cells were pelleted, washed three times with PBS, and resuspended. Fluorescence was analyzed using an Imagestream ISX flow cytometer. Enterococci were detected using log-forward and log-side scatter dot plots, and a gating region was set to exclude debris and aggregates of bacteria. Bacteria were analyzed for FITC-range fluorescence using log-scale amplification, of which the geometric mean fluorescence intensity was recorded as a measure for PLG binding. FITC-range fluorescent signal was confirmed by light and fluorescent microscopy of each event.
Flow cytometry was performed after incubation of V583 with FITC-labeled PLG as before. 80.9% of cells reached a subjectively determined threshold for surface-bound FITC-PLG. […] The effect was concentration-dependent and statistically significant (FIG. 37D).

NC[C@H]1CC[C@H](C(=O)O)CC1 [TXA, tranexamic acid]
clinical / gross leak ([1]; 5 mice per group, enema POD 1, 2, 3): None of the mice
anastomotic healing score (AHS) ([1]; 100 μL enema POD 1, 2, 3 (50 mM TXA in water or PBS), POD 8, water 3.8±0.4): 1.6±0.5 and 1.6+/−0.6
FITC-PLG positivity at the anastomosis (integrated density/area) [2]: significantly decreased the amount of FITC-PLG positivity at the anastomosis at both time points
overall healing (AHS) compared to vehicle control ([3]; TXA 0.75 mg/kg rectal enema POD 1, 2 and 3, POD 8): significantly superior
mean anastomotic healing score (AHS) ([3]; TXA 0.75 mg/kg rectal enema, scored postoperative day 8, vehicle 2.8): 1.4
co-localization of V583 with FITC-PLG at the anastomotic site [4]: effectively prevented co-localization
penetration of V583 into the colonic mucosa [4]: diminished penetration of V583 into the colonic mucosa
plasmin-activating activity of polymicrobial communities [5]: significantly inhibited
intrinsic bacterial type IV collagen degradation activity (E. faecalis): no effect
geometric mean fluorescence intensity of cells (surface-bound FITC-PLG) ([6]; 2 mM TXA): 936
geometric mean fluorescence intensity of cells (surface-bound FITC-PLG) ([6]; 10 mM TXA): 77
surface binding of FITC-PLG by E. faecalis ([6]; flow cytometry and single-cell microscopy): decrease in surface binding of FITC-PLG; also recorded: Fluorescent signal was not present
